{5'-OMe-dT} = O-methyl thymidine blocking nucleotide (W), phosphodiester-linked; {3'-3'N} = to-3' linked nucleotide blocking group (Z), phosphodiester-linked; d = 2'-deoxy (DNA); m = 2'-O-methyl
Tests used:
[1] = system: AKT2 mRNA; assay: AKT2 mRNA knockout after transfection of chimeric antisense oligonucleotide; type: cell-based, human; settings: HT1080 cells, Lipitoid 1 for transfection, incubated 24 hours, approximate level
Procedure: (§1) With the exception of the mTyr oligo (SEQ ID NO: 17-18), which was transfected into B16 melanoma cells, all oligos shown in Table 1 were transfected into HT1080 cells, using “Lipitoid 1” (see below) for transfection, and incubated for 24 hours. The table gives the approximate level of mRNA knockout observed in each case.
(§2) For each transfection mixture, a carrier molecule, preferably a lipitoid or cholesteroid, was prepared to a working concentration of 0.5 mM in water, sonicated to yield a uniform solution, and filtered through a 0.45 μm PVDF membrane. The antisense oligonucleotide was prepared to a working concentration of 100 μM in sterile Millipore water. […]
(§3) The level of target mRNA was quantitated using the Roche LightCycler™ real-time PCR machine. […]
(§4) An amplification mixture was prepared by mixing in the following order: 1×PCR buffer II, 3 mM MgCl2, 140 μM each dNTP, 0.175 pmol each oligo, 1:50,000 dil of SYBR® Green, 0.25 mg/ml BSA, 1 unit Taq polymerase, and H2O to 20 μl. (PCR buffer II is available in 10×concentration from Perkin-Elmer (Norwalk, Conn.). In 1×concentration it contains 10 mM Tris pH 8.3 and 50 mM KCl. SYBR® Green (Molecular Probes, Eugene, Oreg.) is a dye which fluoresces when bound to double stranded DNA. As double stranded PCR product is produced during amplification, the fluorescence from SYBR® Green increases.) […]

[2] = system: CHK2 mRNA; assay: CHK2 mRNA knockout after transfection of chimeric antisense oligonucleotide; type: cell-based, human; settings: HT1080 cells, Lipitoid 1 for transfection, incubated 24 hours, approximate level
Procedure: as §1, §2, §3, §4

[3] = system: MMP2 mRNA; assay: MMP2 mRNA knockout after transfection of chimeric antisense oligonucleotide; type: cell-based, human; settings: HT1080 cells, Lipitoid 1 for transfection, incubated 24 hours, approximate level
Procedure: as §1, §2, §3, §4

[4] = system: MMP9 mRNA; assay: MMP9 mRNA knockout after transfection of chimeric antisense oligonucleotide; type: cell-based, human; settings: HT1080 cells, Lipitoid 1 for transfection, incubated 24 hours, approximate level
Procedure: as §1, §2, §3, §4

[5] = system: mTyr mRNA; assay: mTyr mRNA knockout after transfection into B16 melanoma cells; type: cell-based; settings: approximate level
Procedure: as §1, §2, §3, §4

[6] = system: p110α mRNA; assay: p110α mRNA knockout after transfection of chimeric antisense oligonucleotide; type: cell-based, human; settings: HT1080 cells, Lipitoid 1 for transfection, incubated 24 hours, approximate level
Procedure: as §1, §2, §3, §4

[7] = system: p110β mRNA; assay: p110β mRNA knockout after transfection of chimeric antisense oligonucleotide; type: cell-based, human; settings: HT1080 cells, Lipitoid 1 for transfection, incubated 24 hours, approximate level
Procedure: as §1, §2, §3, §4

[8] = system: PDK1 mRNA; assay: PDK1 mRNA knockout after transfection of chimeric antisense oligonucleotide; type: cell-based, human; settings: HT1080 cells, Lipitoid 1 for transfection, incubated 24 hours, approximate level
Procedure: as §1, §2, §3, §4

[9] = system: UPAR mRNA; assay: UPAR mRNA knockout after transfection of chimeric antisense oligonucleotide; type: cell-based, human; settings: HT1080 cells, Lipitoid 1 for transfection, incubated 24 hours, approximate level
Procedure: as §1, §2, §3, §4

## 2 (GTTCCCTTGCCAAGGAGTTTGAGAT; antisense; sugars from the 5' end m7 d11 m7, 5' {5'-OMe-dT}, 3' {3'-3'N}, backbone and T or U not given here; 2'-OMe blocks are phosphodiester, DNA gap is phosphorothioate) [compound 2]
[1]
  mRNA knockout: >85%

## 4 (GACCCACTTCCCTGAAAATCCGAAA; antisense; sugars from the 5' end m7 d11 m7, 5' {5'-OMe-dT}, 3' {3'-3'N}, backbone and T or U not given here; 2'-OMe blocks are phosphodiester, DNA gap is phosphorothioate) [compound 4]
[2]
  mRNA knockout: >90%

## 14 (GAAGCCCCACTTGCGGTCGTCAT; sugars from the 5' end m7 d9 m7, 5' {5'-OMe-dT}, 3' {3'-3'N}, backbone and T or U not given here; 2'-OMe blocks are phosphodiester, DNA gap is phosphorothioate) [compound 14]
[3]
  mRNA knockout: >80%

## 16 (GCTTTCTCTCGGTACTGGAAGACGT; antisense; sugars from the 5' end m7 d11 m7, 5' {5'-OMe-dT}, 3' {3'-3'N}, backbone and T or U not given here; 2'-OMe blocks are phosphodiester, DNA gap is phosphorothioate) [compound 16]
[4]
  mRNA knockout: >80%

## 17 (AACCCATGAAGTTGCCTGAGCACTG; antisense; sugars from the 5' end m7 d11 m7, 5' {5'-OMe-dT}, 3' {3'-3'N}, backbone and T or U not given here; 2'-OMe blocks are phosphodiester, DNA gap is phosphorothioate) [compound 17]
[5]
  mRNA knockout: >90%

## 19 (ATCTGGTCGCCTCATTTGCTCAACT; antisense; sugars from the 5' end m7 d11 m7, 5' {5'-OMe-dT}, 3' {3'-3'N}, backbone and T or U not given here; 2'-OMe blocks are phosphodiester, DNA gap is phosphorothioate) [compound 19]
[6]
  mRNA knockout: >95%

## 21 (TGATGAAGAGATTCCCATGCCGTCG; antisense; sugars from the 5' end m7 d11 m7, 5' {5'-OMe-dT}, 3' {3'-3'N}, backbone and T or U not given here; 2'-OMe blocks are phosphodiester, DNA gap is phosphorothioate) [compound 21]
[7]
  mRNA knockout: >90%

## 23 (CTGTGAGCAACAGCTGTCGTCGTCT; antisense; sugars from the 5' end m7 d11 m7, 5' {5'-OMe-dT}, 3' {3'-3'N}, backbone and T or U not given here; 2'-OMe blocks are phosphodiester, DNA gap is phosphorothioate) [compound 23]
[8]
  mRNA knockout: >90%

## 24 (GGCAGTCATTAGCAGGGTGATGGTG; antisense; sugars from the 5' end m7 d11 m7, 5' {5'-OMe-dT}, 3' {3'-3'N}, backbone and T or U not given here; 2'-OMe blocks are phosphodiester, DNA gap is phosphorothioate) [compound 24]
[9]
  mRNA knockout: >80%
